Measured values taken from patent US20200178527A1, “Method for Promoting Growth and Preservation Quality of Agaricus Bisporus” (Nanjing University of Finance & Economics, priority 2018, published 2020).

How the values were obtained:
[1] = system: Agaricus bisporus; experiment: Growth of Agaricus bisporus after spraying MeJA solution at mushroom bud stage; assay type: in vivo; conditions: for Diameter of Pileus / Diameter of Stipe / Thickness of Pileus / Weight: 30 mL/m^2 spray
Experimental: Experiment of promoting the growth and preservation quality of Agaricus bisporus (1) An ethanol-water solvent with an ethanol concentration (by volume fraction) of 2% was prepared, and then the methyl jasmonate (MeJA) was dissolved in the ethanol-water solvent to prepare MeJA solutions at concentrations respectively of 10, 50, 100, and 200 μmol/L.
(2) The aforementioned MeJA solutions were each used as an inducer and poured into an automatic spraying device, and were each uniformly sprayed onto the surface of Agaricus bisporus when it was grown to the mushroom bud stage, where the spraying dose of 30 mL/m^2 was used as the treatment group. At the same time, the treatments with water and a 2% ethanol solution were as a blank group and a control group, respectively. The subsequent culturing conditions were 17° C. and a humidity of 90%.
(3) Photographing and sampling are performed every 24 h during the treatment. After sampling, the weight (m) of a single mushroom was weighed and recorded, and the diameter of pileus (a), the diameter of stipe (b) and the thickness of pileus (c) were measured with a microcalliper and recorded to calculate the average values, and the results were shown in Table 1.

[2] = system: Agaricus bisporus; experiment: Post-harvest storage (preservation quality) of Agaricus bisporus at 4° C., relative humidity 90-95%; assay type: in vivo
Experimental: Experiment of promoting the growth and preservation quality of Agaricus bisporus (1) An ethanol-water solvent with an ethanol concentration (by volume fraction) of 2% was prepared, and then the methyl jasmonate (MeJA) was dissolved in the ethanol-water solvent to prepare MeJA solutions at concentrations respectively of 10, 50, 100, and 200 μmol/L. (2) The aforementioned MeJA solutions were each used as an inducer and poured into an automatic spraying device, and were each uniformly sprayed onto the surface of Agaricus bisporus when it was grown to the mushroom bud stage, where the spraying dose of 30 mL/m^2 was used as the treatment group. At the same time, the treatments with water and a 2% ethanol solution were as a blank group and a control group, respectively. The subsequent culturing conditions were 17° C. and a humidity of 90%. The Agaricus bisporus was stored under conditions of 4° C. and a relative humidity of 90-95% after harvested, so as to observe its appearance and quality, and the results were as shown in FIG. 2.

[3] = 10 μM MeJA, day 1 after treatment
[4] = 10 μM MeJA, day 2 after treatment
[5] = 50 μM MeJA, day 1 after treatment
[6] = 50 μM MeJA, day 2 after treatment
[7] = 100 μM MeJA, day 1 after treatment
[8] = 100 μM MeJA, day 2 after treatment
[9] = 200 μM MeJA, day 1 after treatment
[10] = 200 μM MeJA, day 2 after treatment
[11] = methyl jasmonate solution of 10-200 μmol/l sprayed at mushroom bud stage

CC/C=C\CC1C(=O)CCC1CC(=O)OC (stereo not drawn) [MeJA, methyl jasmonate]
Diameter of Pileus [1, 3]: 20.21 ± 0.67 mm
Diameter of Stipe [1, 3]: 12.60 ± 0.91 mm
Thickness of Pileus [1, 3]: 12.07 ± 0.48 mm
Weight [1, 3]: 3.83 ± 0.01 g
Diameter of Pileus [1, 4]: 37.04 ± 0.47 mm
Diameter of Stipe [1, 4]: 18.17 ± 0.60 mm
Thickness of Pileus [1, 4]: 21.49 ± 0.50 mm
Weight [1, 4]: 16.27 ± 0.27 g
Diameter of Pileus [1, 5]: 24.29 ± 0.75 mm
Diameter of Stipe [1, 5]: 13.91 ± 0.66 mm
Thickness of Pileus [1, 5]: 14.80 ± 0.49 mm
Weight [1, 5]: 6.81 ± 0.09 g
Diameter of Pileus [1, 6]: 39.01 ± 0.67 mm
Diameter of Stipe [1, 6]: 18.76 ± 0.38 mm
Thickness of Pileus [1, 6]: 22.29 ± 0.21 mm
Weight [1, 6]: 20.34 ± 0.20 g
Diameter of Pileus [1, 7]: 20.52 ± 0.33 mm
Diameter of Stipe [1, 7]: 14.14 ± 0.35 mm
Thickness of Pileus [1, 7]: 12.28 ± 0.32 mm
Weight [1, 7]: 3.69 ± 0.06 g
Diameter of Pileus [1, 8]: 31.97 ± 0.78 mm
Diameter of Stipe [1, 8]: 16.30 ± 0.82 mm
Thickness of Pileus [1, 8]: 18.73 ± 0.82 mm
Weight [1, 8]: 11.18 ± 0.10 g
Diameter of Pileus [1, 9]: 20.79 ± 0.57 mm
Diameter of Stipe [1, 9]: 13.56 ± 0.83 mm
Thickness of Pileus [1, 9]: 12.70 ± 0.19 mm
Weight [1, 9]: 3.48 ± 0.14 g
Diameter of Pileus [1, 10]: 30.71 ± 0.69 mm
Diameter of Stipe [1, 10]: 17.94 ± 0.39 mm
Thickness of Pileus [1, 10]: 17.5 ± 0.48 mm
Weight [1, 10]: 10.10 ± 0.14 g
effect on growth of Agaricus bisporus ([1]; 10-100 μmol/L, compared with blank group and ethanol group (FIG. 1, Table 1)): significant effect of promoting the growth
improvement of yield [1, 11]: 20%-25%
preserving effect on Agaricus bisporus ([2]; 10-200 μmol/L, compared with blank group and ethanol group, storage at 4° C., RH 90-95% (FIG. 2)): significant preserving effect
extension of post-harvest storage time [2, 11]: 2 to 4 days
